Measured values: patent publication US20230085307A1, “PYRIDAZINONE COMPOUND AND HERBICIDE” (NISSAN CHEMICAL CORPORATION, priority 2019, published 2023)

Columns and labels:
southern crabgrass [1] = assay: Test Example 5: herbicidal effect by foliage application, plastic box (Table 20, symbol F); type: in vivo, southern crabgrass (Digitaria ciliaris); settings: 320 g/ha
Outline: (§1)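 Plants sown in sterilized diluvial soil and grown 14 days in a greenhouse at 25° C to 30° C, then sprayed on the foliage with the compound's emulsion diluted in water to a predetermined herbicide amount. Injury to weeds and crops scored three weeks after application on a visual rating scale.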

green foxtail [2] = assay: Test Example 4: herbicidal effect by soil treatment (Table 19, symbol G); type: in vivo, green foxtail (Setaria viridis); settings: amount of applied herbicide 320 g/ha
Excerpt: (§2) [Test Example 4] Herbicidal Effect Test by Soil Treatment
(§3) Sterilized diluvial soil was placed in a plastic box having a length of 21 cm, a width of 13 cm, and a depth of 7 cm. The seeds of each of southern crabgrass, green foxtail, barnyard grass, wild oat, blackgrass, Italian ryegrass, windgrass, velvetleaf, redroot pigweed, lambsquarters, chickweed, false cleavers, persian speedwell, corn, soybean, rice, wheat, beet, and rapeseed were sowed in a spot-like manner and covered with the soil having a thickness of about 1.5 cm. Subsequently, the emulsion agent of the compound of the present invention prepared according to Formulation Example 2 was diluted with water so as to achieve a predetermined herbicide amount, and the diluted emulsion agent was uniformly applied to the surface of the soil with a small-sized spray. The plastic box was placed in a greenhouse at 25° C. to 30° C. for growth of the plants. Three weeks after the herbicide application, the effect of the herbicide on each plant was evaluated according to the criteria of Test Example 1.

redroot pigweed [3] = assay: Test Example 4: herbicidal effect by soil treatment (Table 19, symbol N); type: in vivo, redroot pigweed (Amaranthus retroflexus); settings: amount of applied herbicide 320 g/ha
Excerpt: as §2, §3

southern crabgrass [4] = assay: Test Example 4: herbicidal effect by soil treatment (Table 19, symbol F); type: in vivo, southern crabgrass (Digitaria ciliaris); settings: amount of applied herbicide 320 g/ha
Excerpt: as §2, §3

Chinese sprangletop = assay: Test Example 3: herbicidal effect by foliage application, Wagner pot (Table 18, symbol D); type: in vivo, chinese sprangletop (Leptochloa chinensis); settings: amount of applied herbicide 320 g/ha
Description: [Test Example 3] Herbicidal Effect Test by Foliage Application After alluvial soil was placed into 1/10000 are of Wagner pot, water was poured and mixed to form a submerged condition having a water depth of 0.1 cm to 0.5 cm. Seeds of barnyard grass, Chinese sprangletop, rice flat sedge, and rice were sowed and the pot was placed in a greenhouse at 25° C. to 30° C. for growth of the plants. After 14-day growth of the plants, the emulsion agent of the compound of the present invention prepared according to Formulation Example 2 was diluted with water so as to achieve a predetermined herbicide amount, and the diluted emulsion agent was uniformly applied to a foliage part with a small-sized spray. Three weeks after the herbicide application, the effect of the herbicide on each plant was evaluated according to the criteria of Test Example 1.

barnyard grass [5] = assay: Test Example 3: herbicidal effect by foliage application, Wagner pot (Table 18, symbol H); type: in vivo, barnyard grass (Echinochloa crus-galli); settings: amount of applied herbicide 320 g/ha
Outline: (§4)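 Plants were sown in alluvial soil held under 0.1–0.5 cm standing water and grown 14 days in a greenhouse at 25–30 °C. An emulsifiable formulation, water-diluted to the set dose, was then sprayed onto the foliage, and effects were scored three weeks later using previously defined criteria.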

barnyard grass [6] = assay: Test Example 5: herbicidal effect by foliage application, plastic box (Table 20, symbol H); type: in vivo, barnyard grass (Echinochloa crus-galli); settings: 320 g/ha
Excerpt: (§5) [Test Example 5] Herbicidal Effect Test by Foliage Application
as §3, with “Thereafter, the plants were grown in a greenhouse at 25° C. to 30° C. After 14-day growth of the plants,” for “Subsequently,”, “a foliage part” for “the surface of the soil”, “spray.” for “spray. The plastic box was placed in a greenhouse at 25° C. to 30° C. for growth of the plants.”

velvetleaf [7] = assay: Test Example 4: herbicidal effect by soil treatment (Table 19, symbol M); type: in vivo, velvetleaf (Abutilon theophrasti); settings: amount of applied herbicide 320 g/ha
Excerpt: as §2, §3

redroot pigweed [8] = assay: Test Example 5: herbicidal effect by foliage application, plastic box (Table 20, symbol N); type: in vivo, redroot pigweed (Amaranthus retroflexus); settings: 320 g/ha
Excerpt: as §5
as §3, with “Thereafter, the plants were grown in a greenhouse at 25° C. to 30° C. After 14-day growth of the plants,” for “Subsequently,”, “a foliage part” for “the surface of the soil”, “spray.” for “spray. The plastic box was placed in a greenhouse at 25° C. to 30° C. for growth of the plants.”

velvetleaf [9] = assay: Test Example 5: herbicidal effect by foliage application, plastic box (Table 20, symbol M); type: in vivo, velvetleaf (Abutilon theophrasti); settings: 320 g/ha
Excerpt: as §5
as §3, with “Thereafter, the plants were grown in a greenhouse at 25° C. to 30° C. After 14-day growth of the plants,” for “Subsequently,”, “a foliage part” for “the surface of the soil”, “spray.” for “spray. The plastic box was placed in a greenhouse at 25° C. to 30° C. for growth of the plants.”

green foxtail [10] = assay: Test Example 5: herbicidal effect by foliage application, plastic box (Table 20, symbol G); type: in vivo, green foxtail (Setaria viridis); settings: 320 g/ha
Excerpt: as §5
as §3, with “Thereafter, the plants were grown in a greenhouse at 25° C. to 30° C. After 14-day growth of the plants,” for “Subsequently,”, “a foliage part” for “the surface of the soil”, “spray.” for “spray. The plastic box was placed in a greenhouse at 25° C. to 30° C. for growth of the plants.”

lambsquarters [11] = assay: Test Example 5: herbicidal effect by foliage application, plastic box (Table 20, symbol O); type: in vivo, lambsquarters (Chenopodium album); settings: 320 g/ha
Outline: as §1

lambsquarters [12] = assay: Test Example 4: herbicidal effect by soil treatment (Table 19, symbol O); type: in vivo, lambsquarters (Chenopodium album); settings: amount of applied herbicide 320 g/ha
Excerpt: as §2, §3

rice flat sedge = assay: Test Example 3: herbicidal effect by foliage application, Wagner pot (Table 18, symbol E); type: in vivo, rice flat sedge (Cyperus iria); settings: amount of applied herbicide 320 g/ha
Outline: as §4

barnyard grass [13] = assay: Test Example 4: herbicidal effect by soil treatment (Table 19, symbol H); type: in vivo, barnyard grass (Echinochloa crus-galli); settings: amount of applied herbicide 320 g/ha
Excerpt: as §2, §3

[14] = foliage application, three weeks after application
[15] = foliage application after 14-day growth, evaluated three weeks after application

For `COCCOc1ccc(-c2sc3ccc(F)cc3c2-c2c(O)c(N)nn(C)c2=O)cc1` [2-456], the “F: southern crabgrass, herbicidal effect grade” value (southern crabgrass [1]; [14]) was 0 (Herbicidal rate of 5% or less (almost no effect)), the “herbicidal effect, G: green foxtail” value (green foxtail [2]) was 0 (Herbicidal rate of 5% or less (almost no effect)) and the “herbicidal effect, N: redroot pigweed” value (redroot pigweed [3]) was 5 (Herbicidal rate of 90% or more (almost completely withered)). The “herbicidal effect, F: southern crabgrass” value (southern crabgrass [4]) was 0 (Herbicidal rate of 5% or less (almost no effect)), the “herbicidal effect on D: Chinese sprangletop” value (Chinese sprangletop) was 0 (Herbicidal rate of 5% or less (almost no effect)) and the “herbicidal effect on H: barnyard grass” value (barnyard grass [5]) was 3 (Herbicidal rate of 40% or more and less than 70%). The “H: barnyard grass, herbicidal effect grade” value (barnyard grass [6]; [14]) was 2 (Herbicidal rate of 20% or more and less than 40%), the “herbicidal effect, M: velvetleaf” value (velvetleaf [7]) was 0 (Herbicidal rate of 5% or less (almost no effect)) and the “N: redroot pigweed, herbicidal effect grade” value (redroot pigweed [8]; [14]) was 4 (Herbicidal rate of 70% or more and less than 90%). For the same compound, the “M: velvetleaf, herbicidal effect grade” value (velvetleaf [9]; [14]) was 3 (Herbicidal rate of 40% or more and less than 70%), the “G: green foxtail, herbicidal effect grade” value (green foxtail [10]; [14]) was 1 (Herbicidal rate of 5% or more and less than 20%) and the “O: lambsquarters, herbicidal effect grade” value (lambsquarters [11]; [14]) was 3 (Herbicidal rate of 40% or more and less than 70%). The “herbicidal effect, O: lambsquarters” value (lambsquarters [12]) was 3 (Herbicidal rate of 40% or more and less than 70%), the “herbicidal effect on E: rice flat sedge” value (rice flat sedge) was 0 (Herbicidal rate of 5% or less (almost no effect)) and the “herbicidal effect, H: barnyard grass” value (barnyard grass [13]) was 0 (Herbicidal rate of 5% or less (almost no effect)).
In the case of `Cc1ccc2c(-c3c(O)c(C)nn(C)c3=O)c(-c3ccc(OC(F)(F)F)cc3)sc2c1` [3-168], the “herbicidal effect on F: southern crabgrass (evaluation grade 0-5)” value (southern crabgrass [1]; [15]) is reported as 0 (Herbicidal rate of 5% or less (almost no effect)), the “Herbicidal effect by soil treatment, G: green foxtail” value (green foxtail [2]) is reported as 0 (Herbicidal rate of 5% or less (almost no effect)) and the “Herbicidal effect by soil treatment, N: redroot pigweed” value (redroot pigweed [3]) is reported as 3 (Herbicidal rate of 40% or more and less than 70%). The “Herbicidal effect by soil treatment, F: southern crabgrass” value (southern crabgrass [4]) was 0 (Herbicidal rate of 5% or less (almost no effect)), the “herbicidal effect on H: barnyard grass (evaluation grade 0-5)” value (barnyard grass [6]; [15]) was 0 (Herbicidal rate of 5% or less (almost no effect)) and the “Herbicidal effect by soil treatment, M: velvetleaf” value (velvetleaf [7]) was 0 (Herbicidal rate of 5% or less (almost no effect)). The “herbicidal effect on N: redroot pigweed (evaluation grade 0-5)” value (redroot pigweed [8]; [15]) was 2 (Herbicidal rate of 20% or more and less than 40%), the “herbicidal effect on M: velvetleaf (evaluation grade 0-5)” value (velvetleaf [9]; [15]) was 0 (Herbicidal rate of 5% or less (almost no effect)) and the “herbicidal effect on G: green foxtail (evaluation grade 0-5)” value (green foxtail [10]; [15]) was 0 (Herbicidal rate of 5% or less (almost no effect)). The “herbicidal effect on O: lambsquarters (evaluation grade 0-5)” value (lambsquarters [11]; [15]) was 3 (Herbicidal rate of 40% or more and less than 70%), the “Herbicidal effect by soil treatment, O: lambsquarters” value (lambsquarters [12]) was 0 (Herbicidal rate of 5% or less (almost no effect)) and the “Herbicidal effect by soil treatment, H: barnyard grass” value (barnyard grass [13]) was 0 (Herbicidal rate of 5% or less (almost no effect)).
